Data reported in patent US11827628B2, “Compositions and methods for inhibition of the JAK pathway” (Rigel Pharmaceuticals, Inc., priority 2005, dated 2023).

System: up-regulation of ICAM-1 (CD54) by IFNγ in A549 lung epithelial cells
Assay: A549 Epithelial Line Stimulated with IFNγ (ICAM-1 surface expression, FACS)
Assay type: cell-based, human
Details: A549 cells stimulated with IFNγ, ICAM-1 expression by FACS; read-out: IC50, Example 43
In short: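 A549 cells pre-incubated 1 h with compound (30 μM to 14 nM, 5% FBS, 0.3% DMSO), then stimulated with IFNγ (75 ng/mL) for 24 h. Surface ICAM-1 stained with APC anti-CD54 and read by flow cytometry; geometric mean of live-gated events plotted against concentration for EC50.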

Structure (SMILES): COCCn1ncc2cc(Nc3nc(Nc4cccc(S(N)(=O)=O)c4)ncc3F)ccc21 [VII-23, N2-(3-Aminosulfonylphenyl)-5-fluoro-N4-[1-(2-methoxyethyl)indazolin-5-yl]-2,4-pyrimidinediamine]
- IC50: 61.3 µM
